The record followed here is US6696470B2, “Pyridylthiophene compounds” (Pfizer Inc., priority 1997, dated 2004).

Usually melting point stands for the temperature of the solid-liquid transition.

In turn, `Cc1c(-c2ccncc2)sc(-c2ccncc2)c1C(C)O` (centres unmarked) [Example 21, 2,5-Di(4-pyridyl)-3-(1-hydroxyethyl)-4-methylthiophene] had a melting point of 155 to 157 °C.

The compound `O=C1CCc2c(-c3ccncc3)sc(-c3ccncc3)c21` [Example 22, 1,3-Di(4-pyridyl)-5,6-dihydro-4H-cyclopenta(c)thiophen-4-one] had a melting point of 168 to 170 °C.

`COC(=O)c1cc(-c2ccncc2)sc1-c1ccncc1` [Example 23, 2,5-Di(4-pyridyl)-3-methoxycarbonylthiophene] showed a melting point of 133 to 135 °C.

For the compound `CC(=O)c1cc(-c2ccncc2)sc1-c1ccncc1` [Example 24, 3-Acetyl-2,5-di(4-pyridyl)thiophene], the melting point lay in the range of 117 to 119 °C.

Compound `O=S(=O)(c1cc(-c2ccncc2)sc1-c1ccncc1)N1CCCC1` [Example 25, 2,5-Di(4-pyridyl)-3-(pyrrolidine-1-sulfonyl)thiophene] came in with a melting point of 193 to 195 °C.

`CC(=O)c1csc(-c2ccncc2)c1C` [Example 27, 4-Acetyl-3-methyl-2-(4-pyridyl)thiophene] showed a melting point of 87 to 87.5 °C.

The compound `N#Cc1cc(-c2ccncc2)sc1-c1ccncc1` [Example 29, 3-Cyano-2,5-di(4-pyridyl)thiophene] gave a melting point of 205 to 207 °C.

On to `CC(=O)c1c(-c2ccc(F)cc2)sc(-c2ccncc2)c1C` [Example 32, 3-Acetyl-2-(4-fluorophenyl)-4-methyl-5-(4-pyridyl)thiophene], for which the melting point was 116 to 118 °C.

Turning to `O=C(c1ccccc1)c1cc(-c2ccncc2)sc1-c1ccncc1` [Example 33, 3-Benzoyl-2,5-di(4-pyridyl)thiophene], the melting point is 168 to 170 °C.

Take `Cc1c(-c2ccncc2)sc(-c2ccncc2)c1C=O` [Example 34, 2,5-Di(4-pyridyl)-4-methylthiophene-3-carbaldehyde]: the melting point was in the range of 139 to 139.5 °C.

`CC(=O)c1c(-c2ccsc2)sc(-c2ccncc2)c1C` [Example 35, 3-Acetyl-4-methyl-5-(4-pyridyl)-2-(3-thienyl)thiophene]: the melting point was in the range of 98 to 100 °C.

`CSc1ccc(-c2sc(-c3ccncc3)c(C)c2C(C)=O)cc1` [Example 36, 3-Acetyl-4-methyl-5-(4-pyridyl)-2-(4-methylthiophenyl)thiophene]: the melting point lay in the range of 106 to 108 °C.

As to `CC(=O)c1cc(-c2ccncc2)sc1N1CCN(C)CC1` [Example 38, 3-Acetyl-2-(4-methylpiperazin-1-yl)-5-(4-pyridyl)thiophene], the melting point lay in the range of 115 to 117 °C.

`O=C1CCCc2c(-c3ccncc3)sc(-c3ccncc3)c21` [Example 41, 1,3-Di(4-pyridyl)-4,5,6,7-tetrahydrobenzo(c)thiophen-4-one] displayed a melting point of 157 to 160 °C.

As to `CC(=O)c1cc(-c2ccncc2)sc1Oc1ccccc1` [Example 42, 3-Acetyl-2-phenoxy-5-(4-pyridyl)thiophene], the melting point was 103 to 105 °C.

On to `CC(=O)c1sc2sc(-c3ccncc3)c(C)c2c1C` [Example 43, 2-Acetyl-3,4-dimethyl-5-(4-pyridyl)thieno[2,3-b]thiophene], for which the melting point lay within 171 to 173 °C.

In the case of `O=C1CCCc2c(Cl)sc(-c3ccncc3)c21` [Example 45, 1-Chloro-3-(4-pyridyl)-4,5,6,7-tetrahydrobenzo(c)thiophen-4-one], the melting point fell in the range of 93 to 95 °C.

In turn, `CSc1sc(-c2ccncc2)c2c1C(=O)CCC2` [Example 47, 3-Methylthio-1-(4-pyridyl)-4,5,6,7-tetrahydrobenzo(c)thiophen-4-one] came in with a melting point of 115 to 116 °C.

As for `CN(C)C(=O)CCc1cc(-c2ccncc2)sc1-c1ccncc1` [Example 49, N,N-Dimethyl-3-[2,5-di-(4-pyridyl)3-thienyl]propionamide], the melting point was 166.5 to 167 °C.

Regarding `CNC(=O)c1cc(-c2ccncc2)sc1-c1ccncc1` [Example 52, N-Methyl-{2,5-di(4-pyridyl)thiophen-3-yl}carboxamide], the melting point was 197 to 199 °C.
